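Assay format: 96-well plates, 48-hour exposure. The concentration for full growth arrest is given as TGI.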
How the values were obtained:
Experiment in all cases: growth of human tumour cells (NCI), 48 h
786-0 renal = test system: 786-0 renal
A498 renal = test system: A498 renal
A549 NSCLC = test system: A549 NSCLC
ACHN renal = test system: ACHN renal
BT-549 breast = test system: BT-549 breast
CAKI-1 renal = test system: CAKI-1 renal
CCRF-CEM leukemia = test system: CCRF-CEM leukemia
COLO 205 colon = test system: COLO 205 colon
DU-145 prostate = test system: DU-145 prostate
EKVX NSCLC = test system: EKVX NSCLC
HCC-2998 colon = test system: HCC-2998 colon
HCT-116 colon = test system: HCT-116 colon
HCT-15 colon = test system: HCT-15 colon
HL-60(TB) leukemia = test system: HL-60(TB) leukemia
HOP-92 NSCLC = test system: HOP-92 NSCLC
HS 578T breast = test system: HS 578T breast
IGROV1 ovarian = test system: IGROV1 ovarian
K-562 leukemia = test system: K-562 leukemia
KM12 colon = test system: KM12 colon
LOX IMVI melanoma = test system: LOX IMVI melanoma
M14 melanoma = test system: M14 melanoma
MALME-3M melanoma = test system: MALME-3M melanoma
MCF7 breast = test system: MCF7 breast
MDA-MB-231 breast = test system: MDA-MB-231 breast
MDA-MB-435 = test system: MDA-MB-435
MDA-N = test system: MDA-N
MOLT-4 leukemia = test system: MOLT-4 leukemia
NCI-H226 lung = test system: NCI-H226 lung
NCI-H460 lung = test system: NCI-H460 lung
NCI-H522 lung = test system: NCI-H522 lung
NCI/ADR-RES ovarian = test system: NCI/ADR-RES ovarian
OVCAR-3 ovarian = test system: OVCAR-3 ovarian
OVCAR-4 ovarian = test system: OVCAR-4 ovarian
OVCAR-5 ovarian = test system: OVCAR-5 ovarian
OVCAR-8 ovarian = test system: OVCAR-8 ovarian
PC-3 prostate = test system: PC-3 prostate
RPMI-8226 leukemia = test system: RPMI-8226 leukemia
RXF 393 renal = test system: RXF 393 renal
SF-268 CNS = test system: SF-268 CNS
SF-295 CNS = test system: SF-295 CNS
SF-539 CNS = test system: SF-539 CNS
SK-MEL-2 melanoma = test system: SK-MEL-2 melanoma
SK-MEL-28 melanoma = test system: SK-MEL-28 melanoma
SK-MEL-5 melanoma = test system: SK-MEL-5 melanoma
SN12C renal = test system: SN12C renal
SNB-19 CNS = test system: SNB-19 CNS
SNB-75 CNS = test system: SNB-75 CNS
SR leukemia = test system: SR leukemia
SW-620 colon = test system: SW-620 colon
T-47D breast = test system: T-47D breast
TK-10 renal = test system: TK-10 renal
U251 CNS = test system: U251 CNS
UACC-257 melanoma = test system: UACC-257 melanoma
UACC-62 melanoma = test system: UACC-62 melanoma
UO-31 renal = test system: UO-31 renal
HOP-62 NSCLC = test system: HOP-62 NSCLC
HT29 colon = test system: HT29 colon
NCI-H23 lung = test system: NCI-H23 lung
SK-OV-3 ovarian = test system: SK-OV-3 ovarian

SMILES: COC(=O)c1ccccc1/C=C1\Cc2ccc3ccccc3c2C1C (stereo unspecified)
- TGI (786-0 renal): > 100 µM
- TGI (A498 renal): > 100 µM
- TGI (A549 NSCLC): > 100 µM
- TGI (ACHN renal): > 100 µM
- TGI (BT-549 breast): > 100 µM
- TGI (CAKI-1 renal): > 100 µM
- TGI (CCRF-CEM leukemia): > 100 µM
- TGI (COLO 205 colon): > 100 µM
- TGI (DU-145 prostate): > 100 µM
- TGI (EKVX NSCLC): > 100 µM
- TGI (HCC-2998 colon): > 100 µM
- TGI (HCT-116 colon): 46.1 µM
- TGI (HCT-15 colon): > 100 µM
- TGI (HL-60(TB) leukemia): > 100 µM
- TGI (HOP-92 NSCLC): > 100 µM
- TGI (HS 578T breast): > 100 µM
- TGI (IGROV1 ovarian): > 100 µM
- TGI (K-562 leukemia): > 100 µM
- TGI (KM12 colon): > 100 µM
- TGI (LOX IMVI melanoma): > 100 µM
- TGI (M14 melanoma): > 100 µM
- TGI (MALME-3M melanoma): > 100 µM
- TGI (MCF7 breast): > 100 µM
- TGI (MDA-MB-231 breast): > 100 µM
- TGI (MDA-MB-435): > 100 µM
- TGI (MDA-N): > 100 µM
- TGI (MOLT-4 leukemia): > 100 µM
- TGI (NCI-H226 lung): > 100 µM
- TGI (NCI-H460 lung): > 100 µM
- TGI (NCI-H522 lung): > 100 µM
- TGI (NCI/ADR-RES ovarian): > 100 µM
- TGI (OVCAR-3 ovarian): > 100 µM
- TGI (OVCAR-4 ovarian): > 100 µM
- TGI (OVCAR-5 ovarian): > 100 µM
- TGI (OVCAR-8 ovarian): > 100 µM
- TGI (PC-3 prostate): > 100 µM
- TGI (RPMI-8226 leukemia): > 100 µM
- TGI (RXF 393 renal): > 100 µM
- TGI (SF-268 CNS): > 100 µM
- TGI (SF-295 CNS): > 100 µM
- TGI (SF-539 CNS): > 100 µM
- TGI (SK-MEL-2 melanoma): > 100 µM
- TGI (SK-MEL-28 melanoma): > 100 µM
- TGI (SK-MEL-5 melanoma): 64.5 µM
- TGI (SN12C renal): > 100 µM
- TGI (SNB-19 CNS): > 100 µM
- TGI (SNB-75 CNS): > 100 µM
- TGI (SR leukemia): > 100 µM
- TGI (SW-620 colon): > 100 µM
- TGI (T-47D breast): 69 µM
- TGI (TK-10 renal): > 100 µM
- TGI (U251 CNS): > 100 µM
- TGI (UACC-257 melanoma): > 100 µM
- TGI (UACC-62 melanoma): > 100 µM
- TGI (UO-31 renal): > 100 µM

SMILES: CCN(CC)Cc1ccc(Nc2c3ccccc3nc3ccccc23)cc1
- TGI (786-0 renal): 10 µM
- TGI (A498 renal): 9.41 µM
- TGI (A549 NSCLC): 2.82 µM
- TGI (ACHN renal): 1.22 µM
- TGI (BT-549 breast): 23.6 µM
- TGI (CAKI-1 renal): 4.66 µM
- TGI (CCRF-CEM leukemia): 8.28 µM
- TGI (COLO 205 colon): 5.78 µM
- TGI (DU-145 prostate): 7.01 µM
- TGI (EKVX NSCLC): 26.2 µM
- TGI (HCC-2998 colon): 2.4 µM
- TGI (HCT-116 colon): 6.99 µM
- TGI (HCT-15 colon): 2.56 µM
- TGI (HL-60(TB) leukemia): > 100 µM
- TGI (HOP-62 NSCLC): 6.84 µM
- TGI (HOP-92 NSCLC): 11.9 µM
- TGI (HS 578T breast): 21.8 µM
- TGI (HT29 colon): 22.3 µM
- TGI (IGROV1 ovarian): 13.9 µM
- TGI (K-562 leukemia): 7.69 µM
- TGI (KM12 colon): 13.1 µM
- TGI (LOX IMVI melanoma): 3.3 µM
- TGI (M14 melanoma): 3.15 µM
- TGI (MALME-3M melanoma): 3.61 µM
- TGI (MCF7 breast): 4.36 µM
- TGI (MDA-MB-231 breast): 4.64 µM
- TGI (MDA-MB-435): 4.17 µM
- TGI (MDA-N): 3.23 µM
- TGI (MOLT-4 leukemia): > 100 µM
- TGI (NCI-H23 lung): 4.52 µM
- TGI (NCI-H460 lung): 3.05 µM
- TGI (NCI-H522 lung): 3.56 µM
- TGI (NCI/ADR-RES ovarian): 22.4 µM
- TGI (OVCAR-3 ovarian): 12.8 µM
- TGI (OVCAR-4 ovarian): 7.64 µM
- TGI (OVCAR-5 ovarian): 5.46 µM
- TGI (OVCAR-8 ovarian): 15 µM
- TGI (PC-3 prostate): 3.68 µM
- TGI (RXF 393 renal): 3.96 µM
- TGI (SF-268 CNS): 9.38 µM
- TGI (SF-295 CNS): 10.9 µM
- TGI (SF-539 CNS): 3.45 µM
- TGI (SK-MEL-2 melanoma): 7.27 µM
- TGI (SK-MEL-28 melanoma): 4.69 µM
- TGI (SK-MEL-5 melanoma): 3.15 µM
- TGI (SK-OV-3 ovarian): 5.56 µM
- TGI (SN12C renal): 7.66 µM
- TGI (SNB-19 CNS): 3.22 µM
- TGI (SR leukemia): 22.2 µM
- TGI (SW-620 colon): 4.12 µM
- TGI (T-47D breast): 16.7 µM
- TGI (TK-10 renal): 18.8 µM
- TGI (U251 CNS): 6.68 µM
- TGI (UACC-257 melanoma): 3.21 µM
- TGI (UACC-62 melanoma): 3.66 µM
- TGI (UO-31 renal): 5.22 µM

Source: PubChem BioAssay (NCI)
